“And” between values parts separate entries of the source, which are not always exact repeats. Equal values may be shown once.
Columns and labels:
[1] = cited from earlier work
[2] = Biodistribution of DRV administered via intravenous; format: in vivo; settings: Balb/c mice; for DRV accumulation cumulatively in the brain / DRV uptake cumulative in liver / DRV uptake cumulative in plasma / DRV accumulation cumulatively for all time points in plasma / DRV accumulation cumulatively for all time points in the brain / DRV concentration in liver (cumulative): cumulative 1, 3, 6, 12 h, mean ± S.E.M.; for concentration at 1 h: both, Balb/c, mouse, brain, other: intranasal (IN), DRV concentration in brain (Mean)

Compound	Brain to plasma ratio, IN compared to IV administration [1]	Increase of DRV accumulation in the brain, IN compared to IV delivery ([2]; 2.5 mg/kg, 1 h, p ≤ 0.05) [fold]	Increase of DRV accumulation in the brain, IN compared to IV delivery ([2]; 2.5 mg/kg, 3 h, p ≤ 0.05) [fold]	DRV accumulation cumulatively in the brain ([2]; 2.5 mg/kg, IN)	DRV uptake cumulative in liver ([2]; 2.5 mg/kg, IN) [ng/g]	DRV uptake cumulative in plasma ([2]; 2.5 mg/kg, IN) [ng/g]	DRV accumulation cumulatively in the brain ([2]; 2.5 mg/kg, IV) [ng/g]	DRV uptake cumulative in liver ([2]; 2.5 mg/kg, IV) [ng/g]	DRV uptake cumulative in plasma ([2]; 2.5 mg/kg, IV) [ng/g]	Lung DRV concentration, IN compared to IV ([2]; 2.5 mg/kg, individual or cumulative time points)	Increase of DRV accumulation in the brain, IN compared to IV delivery ([2]; 25 mg/kg, 1 h, p ≤ 0.001) [fold]	DRV accumulation cumulatively for all time points in plasma ([2]; 25 mg/kg, IN) [ng/g]	DRV accumulation cumulatively for all time points in the brain ([2]; 25 mg/kg, IN)	DRV concentration in liver (cumulative) ([2]; 25 mg/kg, IN) [ng/g]	DRV accumulation cumulatively for all time points in plasma ([2]; 25 mg/kg, IV) [ng/g]	DRV accumulation cumulatively for all time points in the brain ([2]; 25 mg/kg, IV) [ng/g]	DRV concentration in liver (cumulative) ([2]; 25 mg/kg, IV) [ng/g]	concentration at 1 h ([2]; 2.5 mg/kg, 2.5 mg/kg, IN, 1 h) [ng/g]	concentration at 1 h ([2]; 25 mg/kg, 25 mg/kg, IN, 1 h) [ng/g]
CN(C)CCCN=C(N)c1ccc(C(N)=NCCCN(C)C)cc1 [DB213]	significantly high tissue distribution in the brain to plasma ratio	–	–	–	–	–	–	–	–	–	–	–	–	–	–	–	–	–	–
CC(C)CN(C[C@@H](O)[C@H](Cc1ccccc1)NC(=O)O[C@H]1CO[C@H]2OCC[C@H]21)S(=O)(=O)c1ccc(N)cc1 [DRV, Darunavir]	–	~3	~2	12.08 ± 2.91 ng/g and ~12 ng/g	29.27 ± 4.17	19.91 ± 12.65	6.91 ± 1.69	118.39 ± 28.13	81.37 ± 22.04	did not significantly increase	~2	320.56 ± 40.04	19.74 ± 1.80 ng/g and ~20 ng/g	833.83 ± 242.4	899.12 ± 136.93	12.84 ± 2.88	1085.18 ± 255.0	~5	~12

From publication PMC9747527 (Biochemistry and Biophysics Reports, 2022)
